From patent US12516019B2, “Amphoteric compounds” (Eastman Chemical Company, priority 2015, dated 2026)

Experiments:
[1] = Foam height test, Standard Test Method for Foaming Properties of Surface-Active Agents (ASTM 1173-07); assay type: physicochemical; conditions: 49° C.; for Foam height at time t = 0: t = 0 min; for Foam height at time t = 1: t = 1 min; for Foam height at time t = 2: t = 2 min; for Foam height at time t = 3: t = 3 min; for Foam height at time t = 4: t = 4 min; for Foam height at time t = 5: t = 5 min
Source text: The Standard Test Method for Foaming Properties of Surface-Active Agents (ASTM 1173-07) for 0.1 wt % and 1.0 wt % was used to determine the foaming properties of the amphoteric compounds of the formula 1 described herein. This method generates foam under low-agitation conditions and is generally used for moderate- and high-foam surfactants. This test gathers data on initial foam height and foam decay. Foam decay provides information on foam stability.
The apparatus for carrying out this test includes a jacketed column and a pipet. The jacketed column serves as a receiver, while the pipet delivers the surface-active solution.
Solutions of each surface-active agent to be measured were prepared in borosilicate glass jars a day ahead of time, using ambient temperature ingredients, and were slowly rolled overnight to homogenize. The solutions were then removed from the rollers and equilibrated in a constant temperature bath (49° C.+/−1° C.) for at least 1 hour before measurement. The solution of the amphoteric compound to be tested was added to the receiver (50 mL) and to the pipet (200 mL). The pipet was positioned above the receiver and opened. As the solution fell and made contact with the solution in the receiver, foam was generated. When the pipet was empty, the time was noted and an initial foam height was recorded. The foam height was recorded each minute for five minutes. Exact size specifications for the glassware can be found in ASTM 1173-07. The foam height results for each amphoteric compound 1 and representative standards are listed below in Tables 1 (0.1% concentration) and 2 (1% concentration).

[2] = Critical micelle concentration from surface tension (Wilhelmy plate, K100C Tensiometer); assay type: physicochemical; conditions: deionized water, ambient temperature
Protocol: The critical micelle concentration (CMC) is an important characteristic of a surfactant, and the CMC values were determined for the amphoteric compounds of formula 1. The CMC is defined as the concentration at which micelle formation first begins, and for surface tension determination of CMC, is typically assigned as the concentration of the intersection of two straight lines through the data, where the first line is the linear portion of the initial decline in surface tension with increasing surfactant concentration, and the second is the line of constant surface tension.
The critical micelle concentration was determined from plots of surface tension as a function of the logarithm of active surfactant concentration. Surface tension was measured via the Wilhelmy plate technique. In this method, the downward force of a rigorously clean plate probe that just contacts the liquid surface of the test sample is measured, and the surface tension is calculated from knowledge of the contact angle the liquid makes with the probe surface and the length of the probe plate.
A K100C Tensiometer (Kruss GmbH) was used to measure surface tension of solutions in a glass sample vessel. All measurements were made under ambient temperature conditions.
The tensiometer was equipped with a computer-controlled microdispensing and aspirating system to automate surfactant concentration adjustments of the test solution while maintaining constant solution volume between successive measurements. A roughened platinum plate probe was used. Cleanliness of probe, sample vessel, and microdispensing system was verified after cleaning between samples by measuring the surface tension of pure deionized water run through the system as a control.
100 mL of the 1 mg/L surfactant solution was added to the clean sample vessel and placed in the instrument. The plate probe was rinsed with deionized water and flame treated to combust off residual organic impurities, then mounted in position in the tensiometer. The experiment was initiated and run through the LabDesk version 3.2.2 (Kruss GmbH) software.
The surface tension measurements were run sequentially (and automatically) from most dilute to most concentrated by incrementally injecting known volume aliquots of the 10,000 mg/L surfactant solution into the sample, homogenizing the sample after injection by stirring for 30 seconds via a magnetic stir bar in the solution, and then aspirating out equal volume that was added to the sample vessel to keep the total sample volume constant for each measurement.
The sample vessel was then automatically moved into measurement position, and the surface tension measurement was made and recorded. This sequence was repeated until all concentrations had been measured.
The active surfactant concentration range spanned from 1 mg/L to 5000 mg/L over 50 concentration increments, equally spaced on a logarithmic scale over the full range of concentrations measured.
The sample at each concentration was measured 10 times, and the average of the 10 measures was plotted against the logarithm of the surfactant concentration.
After completing the full range of concentrations, the software provided best-fit lines to estimate CMC, and these regression lines were manually adjusted as needed to give the broadest range of linear behavior for each line.

| Compound | Foam height at time t = 0 ([1]; 1 g/L (0.1 weight %)) [mm] | Foam height at time t = 1 ([1]; 1 g/L (0.1 weight %)) [mm] | Foam height at time t = 2 ([1]; 1 g/L (0.1 weight %)) [mm] | Foam height at time t = 3 ([1]; 1 g/L (0.1 weight %)) [mm] | Foam height at time t = 4 ([1]; 1 g/L (0.1 weight %)) [mm] | Foam height at time t = 5 ([1]; 1 g/L (0.1 weight %)) [mm] | Foam height at time t = 0 ([1]; 10 g/L (1.0 weight %)) [mm] | Foam height at time t = 1 ([1]; 10 g/L (1.0 weight %)) [mm] | Foam height at time t = 2 ([1]; 10 g/L (1.0 weight %)) [mm] | Foam height at time t = 3 ([1]; 10 g/L (1.0 weight %)) [mm] | Foam height at time t = 4 ([1]; 10 g/L (1.0 weight %)) [mm] | Foam height at time t = 5 ([1]; 10 g/L (1.0 weight %)) [mm] | Critical micelle concentration (CMC) [2] [mg/L] |
| --- | --- | --- | --- | --- | --- | --- | --- | --- | --- | --- | --- | --- | --- |
| CCCCCCCCCCCCOC(=O)CCC[N+](C)(C)CC(O)CS(=O)(=O)[O-] (stereo not drawn) [Example 4, 3-(3-(Lauryloxycarbonylpropyl)dimethylammonio)-2-hydroxypropanesulfonate] | 142 | 139 | 135 | 132 | 129 | 127 | 173 | 170 | 167 | 162 | 158 | 154 | – |
| CCCCCCCCCCCCOC(=O)CCCC[N+](C)(C)CC(O)CS(=O)(=O)[O-] (stereo not drawn) [Example 9, 3-(4-(Lauryloxycarbonylbutyl)dimethylammonio)-2-hydroxypropanesulfonate] | 185 | 175 | 173 | 170 | 170 | 170 | 195 | 190 | 180 | 180 | 180 | 180 | – |
| (3-Lauryloxycarbonylpropyl)dimethylammonioacetate [Example 3] | 171 | 170 | 170 | 169 | 169 | 169 | 165 | 162 | 160 | 158 | 158 | 156 | 24.2 |
| (4-Laurylamino-4-oxobutyl)dimethylammonioacetate [Example 11] | 174 | 172 | 171 | 171 | 170 | 170 | 182 | 180 | 179 | 178 | 178 | 177 | 76.5 |
| (4-Lauryloxycarbonylbutyl)dimethylammonioacetate [Example 8] | – | – | – | – | – | – | 185 | 175 | 170 | 170 | 170 | 165 | – |

Second part, the compound after the results:

| Foam height at time t = 0 ([1]; 1 g/L (0.1 weight %)) [mm] | Foam height at time t = 1 ([1]; 1 g/L (0.1 weight %)) [mm] | Foam height at time t = 2 ([1]; 1 g/L (0.1 weight %)) [mm] | Foam height at time t = 3 ([1]; 1 g/L (0.1 weight %)) [mm] | Foam height at time t = 4 ([1]; 1 g/L (0.1 weight %)) [mm] | Foam height at time t = 5 ([1]; 1 g/L (0.1 weight %)) [mm] | Foam height at time t = 0 ([1]; 10 g/L (1.0 weight %)) [mm] | Foam height at time t = 1 ([1]; 10 g/L (1.0 weight %)) [mm] | Foam height at time t = 2 ([1]; 10 g/L (1.0 weight %)) [mm] | Foam height at time t = 3 ([1]; 10 g/L (1.0 weight %)) [mm] | Foam height at time t = 4 ([1]; 10 g/L (1.0 weight %)) [mm] | Foam height at time t = 5 ([1]; 10 g/L (1.0 weight %)) [mm] | Critical micelle concentration (CMC) [2] [mg/L] | Compound |
| --- | --- | --- | --- | --- | --- | --- | --- | --- | --- | --- | --- | --- | --- |
| 160 | 157 | 155 | 153 | 151 | 150 | 182 | 180 | 178 | 177 | 176 | 175 | 80.9 | CCCCCCCCCCCCNC(=O)CCC[N+](C)(C)CC(O)CS(=O)(=O)[O-] (stereo not drawn) [Example 12, 3-((4-laurylamino-4-oxobutyl)dimethylammonio)-2-hydroxy-propanesulfonate] |
| 157 | 156 | 153 | 151 | 149 | 147 | 173 | 171 | 170 | 170 | 170 | 169 | 104.5 | CCCCCCCCCCCCNC(=O)CCCC[N+](C)(C)CC(O)CS(=O)(=O)[O-] (stereo not drawn) [Example 21, 3-((5-laurylamino-5-oxopentyl)dimethylammonio)-2-hydroxypropanesulfonate] |
| – | – | – | – | – | – | – | – | – | – | – | – | 962 | CCCCCCCCCCCC[N+](C)(C)CCCS(=O)(=O)[O-] [N-lauryl-N,N-dimethyl-3-ammonio-1-propanesulfonate, reference compound] |
| 180 | 175 | 170 | 170 | 170 | 170 | 175 | 170 | 170 | 170 | 165 | 160 | – | (5-Laurylamino-5-oxopentyl)dimethylammonioacetate [Example 20] |
| – | – | – | – | – | – | – | – | – | – | – | – | 9.5 | cocamidopropyl hydroxysultaine [reference compound] |
